The values below come from patent publication US11384063B2, “Modulators of estrogen receptor proteolysis and associated methods of use” (Arvinas Operations, Inc., priority 2017, dated 2022).

Each structure is given as a SMILES string. pIC50: −log10 of the molar value.

One assay deals with T1, ERα (Homo sapiens, UniProt P03372).
T1 sequence (P03372 1-595): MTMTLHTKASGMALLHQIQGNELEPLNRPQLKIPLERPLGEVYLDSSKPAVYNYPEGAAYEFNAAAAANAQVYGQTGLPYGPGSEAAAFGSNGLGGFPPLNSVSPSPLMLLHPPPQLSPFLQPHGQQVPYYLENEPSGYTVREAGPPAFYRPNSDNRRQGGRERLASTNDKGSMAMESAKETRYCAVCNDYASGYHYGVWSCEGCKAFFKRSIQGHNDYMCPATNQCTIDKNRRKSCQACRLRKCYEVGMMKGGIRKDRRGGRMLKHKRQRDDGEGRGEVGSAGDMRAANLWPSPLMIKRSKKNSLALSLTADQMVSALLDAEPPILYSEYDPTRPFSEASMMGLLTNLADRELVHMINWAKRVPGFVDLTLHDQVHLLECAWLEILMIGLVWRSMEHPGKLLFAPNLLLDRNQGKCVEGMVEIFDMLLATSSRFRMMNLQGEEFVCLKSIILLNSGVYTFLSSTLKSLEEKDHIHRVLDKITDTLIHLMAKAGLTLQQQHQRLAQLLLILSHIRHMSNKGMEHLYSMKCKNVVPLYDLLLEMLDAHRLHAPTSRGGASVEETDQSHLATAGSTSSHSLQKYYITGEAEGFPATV
Description: ERE luciferase reporter gene assay in T47D-KBluc cells (target engagement). The class given is cell-based. Set-up: T47D human breast cancer cells stably transfected with estrogen responsive element/promoter/luciferase reporter gene; host or cells: T47D-KBluc cells. The conditions noted are these: 10% FBS, 24 hours, Table 2 VHL centric PROTACs, read-out: IC50. Summed up:
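PROTACs were tested at 12 concentrations from 300 nM down to 2 pM in 3-fold steps for 24 h on T47D-KBluc cells with a stable ERE-driven luciferase. Medium was RPMI with 10% FBS, measured at 10 pM estrogen. IC50 came from luminescence after lysis, in duplicate.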
On the technique in general: A reporter such as luciferase makes a cellular process visible.
On to `Cc1ncsc1-c1ccc([C@H](C)NC(=O)[C@@H]2C[C@@H](O)CN2C(=O)[C@@H](NC(=O)COCCOCCCOc2ccc(Oc3c(-c4ccc(F)cc4)sc4cc(O)ccc34)cc2)C(C)(C)C)cc1` [Compound 113, (2S,4R)-1-((S)-2-(2-(2-(3-(4-(2-(4-fluorophenyl)-6-hydroxybenzo[b]thiophen-3-yloxy)phenoxy)propoxy)ethoxy)acetamido)-3,3-dimethylbutanoyl)-4-hydroxy-N—((S)-1-(4-(4-methylthiazol-5-yl)phenyl)ethyl)pyrrolidine-2-carboxamide], for which the negative logarithm of the IC50 (pIC50) – broadly, the IC50 on a negative log10 scale, so that one unit is a factor of ten – was 7.63.

For the compound `Cc1ncsc1-c1ccc(CNC(=O)[C@@H]2C[C@@H](O)CN2C(=O)[C@@H](NC(=O)CCCC(=O)N2CCN(CCOc3ccc(Oc4c(-c5ccc(F)cc5)sc5cc(O)ccc45)cc3)CC2)C(C)(C)C)cc1` [Compound 114], the pIC50 is 7.66. On the same count and under the same terms, the same measure for `Cc1ncsc1-c1ccc(CNC(=O)[C@@H]2C[C@@H](O)CN2C(=O)[C@@H](NC(=O)CCC(=O)N2CC3CN(CCOc4ccc(Oc5c(-c6ccc(F)cc6)sc6cc(O)ccc56)cc4)CC3C2)C(C)(C)C)cc1` (some centres unmarked) [Compound 115]: less than 7.00; for `Cc1ncsc1-c1ccc(CNC(=O)[C@@H]2C[C@@H](O)CN2C(=O)[C@@H](NC(=O)COCCO[C@@H]2CCN(CCOc3ccc(Oc4c(-c5ccc(F)cc5)sc5cc(O)ccc45)cc3)C2)C(C)(C)C)cc1` [Compound 116]: 8.52; for `Cc1ncoc1-c1ccc([C@H](C)NC(=O)[C@@H]2C[C@@H](O)CN2C(=O)[C@@H](NC(=O)COCCOCCOCCOc2ccc(Oc3c(-c4ccc(Cl)cc4)sc4cc(O)ccc34)cc2)C(C)(C)C)cc1` [Compound 120]: 8.39. Same read-out and setting: the same measure for `Cc1ncsc1-c1ccc(CNC(=O)[C@@H]2C[C@@H](O)CN2C(=O)[C@@H](NC(=O)CCCN2CC3CN(CCOc4ccc(Oc5c(-c6ccc(F)cc6)sc6cc(O)ccc56)cc4)CC3C2)C(C)(C)C)cc1` (some centres unmarked) [Compound 122]: less than 7.00. On the same count and under the same terms, the same measure for `Cc1ncsc1-c1ccc(CNC(=O)[C@@H]2C[C@@H](O)CN2C(=O)[C@@H](NC(=O)COCCO[C@H]2CCN(CCOc3ccc(Oc4c(-c5ccc(F)cc5)sc5cc(O)ccc45)cc3)C2)C(C)(C)C)cc1` [Compound 123]: 8.26; for `Cc1ncsc1-c1ccc(CNC(=O)[C@@H]2C[C@@H](O)CN2C(=O)[C@@H](NC(=O)CCCC(=O)N2CCN(CCOc3ccc(Oc4c(-c5ccc(F)cc5)sc5cc(O)ccc45)cc3)[C@@H](C)C2)C(C)(C)C)cc1` [Compound 124]: 8.66. As to `Cc1ncsc1-c1ccc(CNC(=O)[C@@H]2C[C@@H](O)CN2C(=O)[C@@H](NC(=O)CCCC(=O)N2CCN(CCOc3ccc(Oc4c(-c5ccc(F)cc5)sc5cc(O)ccc45)cc3)[C@H](C)C2)C(C)(C)C)cc1` [Compound 125], the pIC50 is 8.80. The same measure, in the same setting: the same measure for `Cc1ncsc1-c1ccc(CNC(=O)[C@@H]2C[C@@H](O)CN2C(=O)[C@@H](NC(=O)CCCOCC2CCN(CCOc3ccc(Oc4c(-c5ccc(F)cc5)sc5cc(O)ccc45)cc3)C2)C(C)(C)C)cc1` (some centres unmarked) [Compound 131]: 9.40. The same measure, in the same setting: the same measure for `C[C@H](NC(=O)[C@@H]1C[C@@H](O)CN1C(=O)[C@@H](NC(=O)COCCOCCOCCOc1ccc(Oc2c(-c3ccc(F)cc3)sc3cc(O)ccc23)cc1)C(C)(C)C)c1ccc(C#N)cc1` [Compound 132]: 8.89; for `CC(C)(C)[C@H](NC(=O)COCCOCCOCCOc1ccc(Oc2c(-c3ccc(F)cc3)sc3cc(O)ccc23)cc1)C(=O)N1C[C@H](O)C[C@H]1C(=O)NCc1ccc(C#N)cc1` [Compound 136]: 8.82; for `Cc1ncsc1-c1ccc(CNC(=O)[C@@H]2C[C@@H](O)CN2C(=O)[C@@H](NC(=O)CCCOC2CCN(CCOc3ccc(Oc4c(-c5ccc(F)cc5)sc5cc(O)ccc45)cc3)CC2)C(C)(C)C)cc1` [Compound 137]: 7.06. Still for that read-out and setting: the same measure for `CC(C)(C)[C@H](NC(=O)COCCOCCN1CCC(c2ccc(Oc3c(-c4ccc(F)cc4)sc4cc(O)ccc34)cc2)CC1)C(=O)N1C[C@H](O)C[C@H]1C(=O)NCc1ccc(C#N)cc1` [Compound 143]: 7.49; for `CC(C)(C)[C@H](NC(=O)COCCOCCN1CCC(c2ccc(Oc3c(-c4ccc(F)cc4)sc4cc(O)ccc34)cc2)CC1)C(=O)N1C[C@H](O)C[C@H]1C(=O)NCc1ccc(Cl)cc1` [Compound 144]: less than 7.00; for `CC(C)(C)[C@H](NC(=O)Cc1ccc(-c2ccn(CCOc3ccc(Oc4c(-c5ccc(F)cc5)sc5cc(O)ccc45)cc3)n2)cc1)C(=O)N1C[C@H](O)C[C@H]1C(=O)NCc1ccc(C#N)cc1` [Compound 145]: 7.01. For the compound `CC(C)(C)[C@H](NC(=O)Cc1ccc(-c2ccn(CCOc3ccc(Oc4c(-c5ccc(F)cc5)sc5cc(O)ccc45)cc3)n2)cc1)C(=O)N1C[C@H](O)C[C@H]1C(=O)NCc1ccc(Cl)cc1` [Compound 146], the pIC50 was less than 7.00.

In the case of `C[C@H](NC(=O)[C@@H]1C[C@@H](O)CN1C(=O)[C@@H](NC(=O)COCCOCCN1CCC(c2ccc(Oc3c(-c4ccc(F)cc4)sc4cc(O)ccc34)cc2)CC1)C(C)(C)C)c1ccc(Cl)cc1` [Compound 148], the pIC50 was less than 7.00.

On to `Cc1ncsc1-c1ccc(CNC(=O)[C@H]2C[C@H](O)CN2C(=O)[C@@H](NC(=O)COCCN2CCN(CCOc3ccc(Oc4c(-c5ccc(Br)cc5)sc5cc(O)ccc45)cc3)CC2)C(C)(C)C)cc1` [Compound 152], for which the pIC50 was less than 7.00. As for `COc1ccc2c(Oc3ccc(OCCN4CCN(CCOCC(=O)N[C@H](C(=O)N5C[C@H](O)C[C@H]5C(=O)NCc5ccc(-c6scnc6C)cc5)C(C)(C)C)CC4)cc3)c(-c3ccc(Br)cc3)sc2c1` [Compound 154], the negative logarithm of the IC50 (pIC50) is less than 7.00. `COc1ccc2c(Oc3ccc(OCCN4CCN(CCOCC(=O)N[C@H](C(=O)N5C[C@H](O)C[C@H]5C(=O)N[C@@H](C)c5ccc(-c6scnc6C)cc5)C(C)(C)C)CC4)cc3)c(-c3ccc(Br)cc3)sc2c1` [Compound 155]: the negative-log IC50 (pIC50) was less than 7.00. Still for that read-out and setting: the same measure for `Cc1ncsc1-c1ccc(CNC(=O)[C@@H]2CCCN2C(=O)[C@@H](NC(=O)COCCN2CCN(CCOc3ccc(Oc4c(-c5ccc(Br)cc5)sc5cc(O)ccc45)cc3)CC2)C(C)(C)C)cc1` [Compound 156]: less than 7.00.

`COc1ccc2c(Oc3ccc(OCCN4CCN(CCOCC(=O)N[C@H](C(=O)N5CCC[C@H]5C(=O)NCc5ccc(-c6scnc6C)cc5)C(C)(C)C)CC4)cc3)c(-c3ccc(Br)cc3)sc2c1` [Compound 157]: the negative logarithm of the IC50 (pIC50) is less than 7.00.

`COc1ccc2c(Oc3ccc(OCCN4CCN(CCOCC(=O)N[C@H](C(=O)N5CC(=O)C[C@H]5C(=O)NCc5ccc(-c6scnc6C)cc5)C(C)(C)C)CC4)cc3)c(-c3ccc(Br)cc3)sc2c1` [Compound 159]: the negative logarithm of the IC50 (pIC50) is less than 7.00.

As for `Cc1ncsc1-c1ccc(CNC(=O)[C@@H]2C[C@@H](O)CN2C(=O)[C@H](c2cc(OCCN3CCN(CCOc4ccc(Oc5c(-c6ccc(Br)cc6)sc6cc(O)ccc56)cc4)CC3)no2)C(C)C)cc1` [Compound 163], the pIC50 was less than 7.00.

Staying with this assay, now noted: 10% FBS, 24 hours, Table 3 cereblon centric PROTACs, read-out: ER-α Luciferase IC50.
On to `O=C1CCC(N2Cc3cc(NCCCOCCCOCCCOc4ccc(Oc5c(-c6ccc(Br)cc6)sc6cc(O)ccc56)cc4)ccc3C2=O)C(=O)N1` (centres unmarked) [Compound 170], for which the pIC50 was 8.25.

As for `O=C1CCC(N2Cc3cc(NCCCOCCOCCOc4ccc(Oc5c(-c6ccc(Br)cc6)sc6cc(O)ccc56)cc4)ccc3C2=O)C(=O)N1` (centres unmarked) [Compound 171], the pIC50 was 8.06. For the compound `O=C1CCC(N2C(=O)c3ccc(NCCCOCCCOCCOc4ccc(Oc5c(-c6ccc(Br)cc6)sc6cc(O)ccc56)cc4)cc3C2=O)C(=O)N1` (centres unmarked) [Compound 172], the negative logarithm of the IC50 (pIC50) was 7.80.

For the compound `O=C1CCC(N2Cc3cc(NCCCOCCCOCCCCOc4ccc(Oc5c(-c6ccc(Br)cc6)sc6cc(O)ccc56)cc4)ccc3C2=O)C(=O)N1` (centres unmarked) [Compound 173], the negative-log IC50 (pIC50) was 8.10. Still for that read-out and setting: the same measure for `O=C1CCC(N2C(=O)c3ccc(OCCCOCCCOCCCCOc4ccc(Oc5c(-c6ccc(Br)cc6)sc6cc(O)ccc56)cc4)cc3C2=O)C(=O)N1` (centres unmarked) [Compound 175]: 7.18. Still for that read-out and setting: the same measure for `O=C1CCC(N2C(=O)c3ccc(NCCCOCCCOCCCCOc4ccc(Oc5c(-c6ccc(Br)cc6)sc6cc(O)ccc56)cc4)cc3C2=O)C(=O)N1` (centres unmarked) [Compound 176]: 7.54; for `O=C1CCC(N2C(=O)c3ccc(N4CCN(CCC5CN(CCOc6ccc(Oc7c(-c8ccc(Br)cc8)sc8cc(O)ccc78)cc6)C5)CC4)cc3C2=O)C(=O)N1` (centres unmarked) [Compound 186]: less than 6.52; for `O=C1CCC(N2Cc3cc(N4CCC(CN5CCC(Oc6ccc(Oc7c(-c8ccc(C(F)(F)F)cc8)sc8cc(O)ccc78)cc6)CC5)CC4)ccc3C2=O)C(=O)N1` (centres unmarked) [Compound 187]: 8.29.

For the compound `O=C1CCC(N2C(=O)c3ccc(N4CCC(CN5CCC(Oc6ccc(Oc7c(-c8ccc(C(F)(F)F)cc8)sc8cc(O)ccc78)cc6)CC5)CC4)cc3C2=O)C(=O)N1` (centres unmarked) [Compound 188], the negative-log IC50 (pIC50) is 8.06. Turning to `O=C1CCC(N2C(=O)c3ccc(N4CC(CN5CCN(CCOc6ccc(Oc7c(-c8ccc(Br)cc8)sc8cc(O)ccc78)cc6)CC5)C4)cc3C2=O)C(=O)N1` (centres unmarked) [Compound 189], the negative-log IC50 (pIC50) was 8.52.
